The numbers were not newly measured in patent US20160300010A1, “METHOD AND SYSTEM FOR PREDICTING SELECTIVE CANCER DRUG TARGETS” (RAMOT AT TEL-AVIV UNIVERSITY LTD., priority 2011, published 2016), which cites them from elsewhere.

In the data set the test system is human cancer cells. The following applies: previously shown.

As to `NC(Cn1ccc(=O)c(O)c1)C(=O)O` (stereo not shown) [Mimosine], the “effect on proliferation of human cancer cells” value is listed as “inhibit proliferation of human cancer cells”.
